Reference: US20160083357A1, “NOVEL TETRAZOLONE DERIVATIVES” (Hoffmann-La Roche Inc., priority 2013, published 2016)
Like-named read-outs stand apart in the source and are kept apart here.

What was measured:
[1] = target: T1, human CB1 receptors (Homo sapiens, UniProt P21554); test: cAMP assay, human CB1; assay type: cell-based
T1 construct: expressed in transfected cells; host or cells: CHO cells
Method: (§1) CHO cells expressing human CB1 or CB2 receptors are seeded 17-24 hours prior to the experiment 50.000 cells per well in a black 96 well plate with flat clear bottom (Corning Costar #3904) in DMEM (Invitrogen No. 31331), lx HT supplement, with 10% fetal calf serum and incubated at 5% CO2 and 37° C. in a humidified incubator. The growth medium was exchanged with Krebs Ringer Bicarbonate buffer with 1 mM IBMX and incubated at 30° C. for 30 min. Compounds were added to a final assay volume of 100 μl and incubated for 30 min at 30° C. Using the cAMP-Nano-TRF detection kit the assay (Roche Diagnostics) was stopped by the addition of 50 μl lysis reagent (Tris, NaCl, 1.5% Triton X100, 2.5% NP40, 10% NaN3) and 50 μl detection solutions (20 μM mAb Alexa700-cAMP 1:1, and 48 μM Ruthenium-2-AHA-cAMP) and shaken for 2 h at room temperature. The time-resolved energy transfer is measured by a TRF reader (Evotec Technologies GmbH), equipped with a ND:YAG laser as excitation source. The plate is measured twice with the excitation at 355 nm and at the emission with a delay of 100 ns and a gate of 100 ns, total exposure time 10 s at 730 (bandwidth 30 nm) or 645 nm (bandwidth 75 nm), respectively. The FRET signal is calculated as follows: FRET=T730-Alexa730-P(T645-B645) with P=Ru730-B730/Ru645-B645, where T730 is the test well measured at 730 nM, T645 is the test well measured at 645 nm, B730 and B645 are the buffer controls at 730 nm and 645 nm, respectively. cAMP content is determined from the function of a standard curve spanning from 10 μM to 0.13 nM cAMP.
(§2) EC50 values were determined using Activity Base analysis (ID Business Solution, Limited). The EC50 values for a wide range of cannabinoid agonists generated from this assay were in agreement with the values published in the scientific literature.

[2] = target: T2, human CB2 receptors (Homo sapiens, UniProt P34972); test: cAMP assay, human CB2; assay type: cell-based
T2 construct: expressed in transfected cells; host or cells: CHO cells
Method: as §1, §2

[3] = functional cAMP assay, CHO cells expressing human CB1, read-out: Ec50: CB1 - hu cAMP
[4] = functional cAMP assay, CHO cells expressing human CB2, read-out: Ec50: CB2 - hu cAMP

T2 sequence (P34972 whole entry): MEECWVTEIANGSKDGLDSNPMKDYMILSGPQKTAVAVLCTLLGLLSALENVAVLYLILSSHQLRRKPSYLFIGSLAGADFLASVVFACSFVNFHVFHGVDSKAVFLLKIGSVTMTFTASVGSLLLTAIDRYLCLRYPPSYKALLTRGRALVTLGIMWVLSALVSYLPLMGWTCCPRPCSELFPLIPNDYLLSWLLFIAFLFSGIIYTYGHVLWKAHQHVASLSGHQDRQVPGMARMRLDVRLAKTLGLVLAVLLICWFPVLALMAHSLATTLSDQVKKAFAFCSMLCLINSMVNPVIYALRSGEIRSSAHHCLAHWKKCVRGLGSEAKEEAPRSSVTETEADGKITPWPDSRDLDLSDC
T1 sequence (P21554 whole entry): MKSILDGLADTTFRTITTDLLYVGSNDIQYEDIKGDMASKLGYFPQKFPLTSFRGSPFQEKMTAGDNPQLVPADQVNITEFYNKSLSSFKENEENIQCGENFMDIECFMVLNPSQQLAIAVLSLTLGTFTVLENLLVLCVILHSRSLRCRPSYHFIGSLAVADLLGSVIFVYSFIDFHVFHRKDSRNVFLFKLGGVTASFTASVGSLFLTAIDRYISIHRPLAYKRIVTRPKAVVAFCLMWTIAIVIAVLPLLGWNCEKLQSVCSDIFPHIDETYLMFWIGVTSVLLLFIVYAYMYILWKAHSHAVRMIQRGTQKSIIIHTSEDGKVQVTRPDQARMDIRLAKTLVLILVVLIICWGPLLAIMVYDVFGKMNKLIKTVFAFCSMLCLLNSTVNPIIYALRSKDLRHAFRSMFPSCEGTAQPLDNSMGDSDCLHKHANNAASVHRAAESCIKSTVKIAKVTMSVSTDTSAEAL

Structure (SMILES)	EC50 [1, 3]	EC50 [2, 4]	EC50 [1]	EC50 [2]
CC(=O)N[C@@H]1CCN(C(=O)n2nnn(-c3ccc(Cl)cc3)c2=O)C1 [Example 67, N—{(R)-1-[4-(4-Chloro-phenyl)-5-oxo-4,5-dihydro-tetrazole-1-carbonyl]-pyrrolidin-3-yl}-acetamide]	> 10000 nM	14.6 nM		
CN(C(=O)n1nnn(C2CC2)c1=O)c1cccnc1 [Example 35, 4-Cyclopropyl-5-oxo-4,5-dihydro-tetrazole-1-carboxylic acid methyl-pyridin-3-yl-amide]	> 10000 nM	161 nM		
CCOC(=O)Cn1nnn(-c2cccc(Cl)c2)c1=O [Example 114, [4-(3-Chloro-phenyl)-5-oxo-4,5-dihydro-tetrazol-1-yl]-acetic acid ethyl ester]	> 10000 nM	1990 nM		
CC(=O)N[C@@H]1CCN(C(=O)n2nnn(-c3cccc(Cl)c3)c2=O)C1 [Example 65, N—{(R)-1-[4-(3-Chloro-phenyl)-5-oxo-4,5-dihydro-tetrazole-1-carbonyl]-pyrrolidin-3-yl}-acetamide]	> 10000 nM	15 nM		
Cn1ccc2cc(-n3nnn(C(=O)N4CCOCC4)c3=O)ccc21 [Example 133, 1-(1-methylindol-5-yl)-4-(morpholine-4-carbonyl)tetrazol-5-one]	> 10000 nM	18 nM		
CCN(CCOC)C(=O)n1nnn(-c2ccc(Cl)cc2)c1=O [Example 82, 4-(4-Chloro-phenyl)-5-oxo-4,5-dihydro-tetrazole-1-carboxylic acid ethyl-(2-methoxy-ethyl)-amide]			> 10000 nM	3.3 nM
CCCCNC(=O)CN1CCN(C(=O)n2nnn(-c3ccc(Cl)cc3)c2=O)CC1 [Example 109, N-Butyl-2-{4-[4-(4-chloro-phenyl)-5-oxo-4,5-dihydro-tetrazole-1-carbonyl]-piperazin-1-yl}-acetamide]	> 10000 nM	4.2 nM		
CC1(C)CCN(C(=O)n2nnn(-c3cccc(OC(F)(F)F)c3)c2=O)CC1 [Example 78, 1-(4,4-Dimethyl-piperidine-1-carbonyl)-4-(3-trifluoromethoxy-phenyl)-1,4-dihydro-tetrazol-5-one]	> 10000 nM	1.5 nM		
COCCCN(C)C(=O)n1nnn(-c2ccc(Cl)cc2)c1=O [Example 88, 4-(4-Chloro-phenyl)-5-oxo-4,5-dihydro-tetrazole-1-carboxylic acid (3-methoxy-propyl)-methyl-amide]	> 10000 nM	1.9 nM		
O=C(N1CCOCC1)n1nnn(-c2cc(F)cc(F)c2)c1=O [Example 126, 1-(3,5-difluorophenyl)-4-(morpholine-4-carbonyl)tetrazol-5-one]	> 10000 nM	13 nM		
O=C(Cn1nnn(-c2cccc(Cl)c2)c1=O)N1CCOCC1 [Example 115, 1-(3-Chloro-phenyl)-4-(2-morpholin-4-yl-2-oxo-ethyl)-1,4-dihydro-tetrazol-5-one]	> 10000 nM	2020 nM		
O=C(N1CCOCC1)n1nnn(-c2ccc(C(F)(F)F)cc2)c1=O [Example 121, 1-(morpholine-4-carbonyl)-4-[4-(trifluoromethyl)phenyl]tetrazol-5-one]	> 10000 nM	16 nM		
CC1CN(C(=O)n2nnn(-c3cccc(F)c3)c2=O)CC(C)O1 (stereo not drawn) [Example 58, 1-(2,6-Dimethyl-morpholine-4-carbonyl)-4-(3-fluoro-phenyl)-1,4-dihydro-tetrazol-5-one]	> 10000 nM	45.4 nM		
O=C(N1CCOCC1)n1nnn(-c2cccc(Cl)c2Cl)c1=O [Example 131, 1-(2,3-dichlorophenyl)-4-(morpholine-4-carbonyl)tetrazol-5-one]	> 10000 nM	16 nM		
CCCCNC(=O)CN1CCN(C(=O)n2nnn(-c3cccc(Cl)c3)c2=O)CC1 [Example 107, N-Butyl-2-{4-[4-(3-chloro-phenyl)-5-oxo-4,5-dihydro-tetrazole-1-carbonyl]-piperazin-1-yl}-acetamide]	> 10000 nM	2.9 nM		
CC(C(=O)N1CCCC1)N1CCN(C(=O)n2nnn(-c3cccc(OC(F)(F)F)c3)c2=O)CC1 (stereo not drawn) [Example 117, 1-[4-(1-Methyl-2-oxo-2-pyrrolidin-1-yl-ethyl)-piperazine-1-carbonyl]-4-(3-trifluoromethoxy-phenyl)-1,4-dihydro-tetrazol-5-one]	> 10000 nM	106 nM		
COc1ccc(CCN(C)C(=O)n2nnn(-c3cccc(F)c3)c2=O)cc1OC [Example 1, 4-(3-Fluoro-phenyl)-5-oxo-4,5-dihydro-tetrazole-1-carboxylic acid [2-(3,4-dimethoxy-phenyl)-ethyl]-methyl-amide]	> 10000 nM	0.6 nM		
C[C@@H]1CN(C(=O)n2nnn(-c3cccc(Cl)c3)c2=O)C[C@H](C)O1 [Example 136, 1-(3-chlorophenyl)-4-[(2R,6S)-2,6-dimethylmorpholine-4-carbonyl]tetrazol-5-one]	> 10000 nM	507 nM		
CN(C(=O)n1nnn(-c2cccc(F)c2)c1=O)c1cccnc1 [Example 33, 4-(3-Fluoro-phenyl)-5-oxo-4,5-dihydro-tetrazole-1-carboxylic acid methyl-pyridin-3-yl-amide]	> 10000 nM	25 nM		
CCOCCN(CC)C(=O)n1nnn(-c2cccc(OC(F)(F)F)c2)c1=O [Example 99, 5-Oxo-4-(3-trifluoromethoxy-phenyl)-4,5-dihydro-tetrazole-1-carboxylic acid (2-ethoxy-ethyl)-ethyl-amide]	> 10000 nM	12.5 nM		
CCN(C(C)=O)C1CCN(C(=O)n2nnn(-c3cccc(Cl)c3)c2=O)C1 (stereo not drawn) [Example 71, N-{1-[4-(3-Chloro-phenyl)-5-oxo-4,5-dihydro-tetrazole-1-carbonyl]-pyrrolidin-3-yl}-N-ethyl-acetamide]	> 10000 nM	16.7 nM		
CN(C)C(=O)CN1CCN(C(=O)n2nnn(-c3ccc(Cl)cc3)c2=O)CC1 [Example 94, 2-{4-[4-(4-Chloro-phenyl)-5-oxo-4,5-dihydro-tetrazole-1-carbonyl]-piperazin-1-yl}-N,N-dimethyl-acetamide]	> 10000 nM	21.1 nM		
CN(CCCc1ccccc1)C(=O)n1nnn(-c2cccc(F)c2)c1=O [Example 8, 4-(3-Fluoro-phenyl)-5-oxo-4,5-dihydro-tetrazole-1-carboxylic acid methyl-(3-phenyl-propyl)-amide]	> 10000 nM	1.2 nM		
CC(=O)N[C@H]1CCN(C(=O)n2nnn(-c3cccc(F)c3)c2=O)C1 [Example 42, N—{(S)-1-[4-(3-Fluoro-phenyl)-5-oxo-4,5-dihydro-tetrazole-1-carbonyl]-pyrrolidin-3-yl}-acetamide]	> 10000 nM	91.1 nM		
CC(=O)NC1CCN(C(=O)n2nnn(-c3cccc(F)c3)c2=O)C1 (stereo not drawn) [Example 23, N-{1-[4-(3-Fluoro-phenyl)-5-oxo-4,5-dihydro-tetrazole-1-carbonyl]-pyrrolidin-3-yl}-acetamide]	> 10000 nM	31.4 nM		
CCCn1nnn(C(=O)N(C)c2cccnc2)c1=O [Example 36, 5-Oxo-4-propyl-4,5-dihydro-tetrazole-1-carboxylic acid methyl-pyridin-3-yl-amide]	> 10000 nM	874 nM		
CCN(CC)C(=O)N1CCN(C(=O)n2nnn(-c3cccc(F)c3)c2=O)CC1 [Example 40, 4-[4-(3-Fluoro-phenyl)-5-oxo-4,5-dihydro-tetrazole-1-carbonyl]-piperazine-1-carboxylic acid diethylamide]	> 10000 nM	52.8 nM		
